In one assay the test system is TNFα. Put plainly: cells. The class given is cell-based, human. Particulars: Homo sapiens, Monocyte, LPS-stimulated human monocytes, TNFα content; read-out: EC50 TNF.
The next assay addresses IRAK4 enzyme (Homo sapiens (Human), UniProt Q9NWZ3). Put plainly: biochemical. Particulars: IRAK4 enzyme, TR-FRET, 500 μM ATP. In kind it is biochemical. (In general: In TR-FRET formats the signal depends on donor and acceptor labels being close together.)

The text below walks through data of patent publication US10336762B2 (priority 2017, dated 2019).

One may read the EC50 as the midpoint of the concentration-response curve. The term IC50 denotes the concentration that inhibits the measured activity by half.

Molecules are shown by their SMILES.

Sequence of IRAK4 enzyme (Q9NWZ3 whole entry): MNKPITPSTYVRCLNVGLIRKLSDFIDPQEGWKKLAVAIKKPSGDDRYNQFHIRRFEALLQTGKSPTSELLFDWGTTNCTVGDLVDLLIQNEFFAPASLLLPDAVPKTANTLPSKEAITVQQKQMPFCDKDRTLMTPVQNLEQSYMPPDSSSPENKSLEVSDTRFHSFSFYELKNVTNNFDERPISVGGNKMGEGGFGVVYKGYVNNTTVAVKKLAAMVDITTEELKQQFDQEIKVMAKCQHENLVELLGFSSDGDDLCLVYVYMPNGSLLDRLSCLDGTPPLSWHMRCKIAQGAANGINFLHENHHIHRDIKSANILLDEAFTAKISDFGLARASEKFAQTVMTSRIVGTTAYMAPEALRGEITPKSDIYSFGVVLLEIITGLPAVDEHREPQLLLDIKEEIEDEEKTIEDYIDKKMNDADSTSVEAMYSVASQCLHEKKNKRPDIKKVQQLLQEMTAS

Take `CC(C)(O)[C@H](F)CNC(=O)c1cnc(-c2ccc3cc(C#N)cnn23)cc1Nc1cnn(C2CC2)c1` [Example 67, (R)-6-(3-cyanopyrrolo[1,2-b]pyridazin-7-yl)-4-((1-cyclopropyl-1H-pyrazol-4-yl)amino)-N-(2-fluoro-3-hydroxy-3-methylbutyl)nicotinamide]: in the assay on TNFα, the half-maximal effective concentration (EC50) is 43 nM. In addition, the half-maximal inhibitory concentration (IC50) against IRAK4 enzyme is under 1 nM.
On the same counts, the results for `CC(C)Nc1cc(-c2ccc3cc(C#N)cnn23)ncc1C(=O)NNCC(C)(C)O` [Example 69, 6-(3-cyanopyrrolo[1,2-b]pyridazin-7-yl)-N′-(2-hydroxy-2-methylpropyl)-4-(isopropylamino) nicotinohydrazide] are 515 nM and 7 nM.
On the same counts, the results for `CC(C)(O)[C@H](F)CNC(=O)c1cnc(-c2ccc3cc(C#N)cnn23)cc1Nc1cn[nH]c1` [Example 70, (R)-4-((1H-pyrazol-4-yl)amino)-6-(3-cyano-pyrrolo[1,2-b]pyridazin-7-yl)-N-(2-fluoro-3-hydroxy-3-methylbutyl)nicotinamide] are 47 nM and under 1 nM.
In the same order, the values of `CC(C)Nc1cc(-c2ccc3cc(C#N)cnn23)ncc1C(=O)NC1CS(=O)(=O)C1` [Example 71, 6-(3-cyanopyrrolo[1,2-b]pyridazin-7-yl)-N-(1,1-dioxidothietan-3-yl)-4-(isopropylamino) nicotinamide] are 298 nM and 9 nM.
On to `CC(C)Nc1cc(-c2ccc3cc(C#N)cnn23)ncc1C(=O)NCC1CS(=O)(=O)C1` [Example 72, 6-(3-cyanopyrrolo[1,2-b]pyridazin-7-yl)-N-((1,1-dioxidothietan-3-yl)methyl)-4-(isopropylamino) nicotinamide], for which the 50% effective concentration (EC50) with TNFα was determined as 159 nM. Moreover, half-maximal inhibition on IRAK4 enzyme (IC50) was put at 4 nM.
In the same order, the values of `CC(C)Nc1cc(-c2ccc3cc(C#N)cnn23)ncc1C(=O)NCC1CCS(=O)(=O)C1` (stereo not drawn) [Example 73, 6-(3-cyanopyrrolo[1,2-b]pyridazin-7-yl)-N-((1,1-dioxidotetrahydrothiophen-3-yl)methyl)-4-(isopropylamino) nicotinamide] are 119 nM and 3 nM.
On the same counts, the results for `CC(C)(O)[C@H](F)CNC(=O)c1cnc(-c2ccc3cc(C#N)cnn23)cc1NCC1CCS(=O)(=O)C1` (stereo partly drawn) [Example 74, 6-(3-cyanopyrrolo[1,2-b]pyridazin-7-yl)-4-(((1,1-dioxidotetrahydrothiophen-3-yl)methyl)amino)-N-((R)-2-fluoro-3-hydroxy-3-methylbutyl) nicotinamide] are 1100 nM and 2 nM.
In the case of `CC(C)(O)[C@H](F)CNC(=O)c1cnc(-c2ccc3cc(C#N)cnn23)cc1NC1CCS(=O)(=O)CC1` [Example 75, (R)-6-(3-cyanopyrrolo[1,2-b]pyridazin-7-yl)-4-((1,1-dioxidotetrahydro-2H-thiopyran-4-yl)amino)-N-(2-fluoro-3-hydroxy-3-methylbutyl) nicotinamide], the concentration giving a half-maximal response (EC50) with TNFα was determined as 544 nM. This compound also came in with a concentration for half-maximal inhibition (IC50) against IRAK4 enzyme of 3 nM.
On the same counts, the results for `CC(C)(O)[C@H](F)CNC(=O)c1cnc(-c2ccc3cc(C#N)cnn23)cc1NC1CCS(=O)(=O)C1` (stereo partly drawn) [Example 76, 6-(3-cyanopyrrolo[1,2-b]pyridazin-7-yl)-4-((1,1-dioxidotetrahydrothiophen-3-yl)amino)-N-((R)-2-fluoro-3-hydroxy-3-methylbutyl)nicotinamide] are 348 nM and 1 nM.
In the same order, the values of `CC(C)(O)[C@H](F)CNC(=O)c1cnc(-c2ccc3cc(C#N)cnn23)cc1NC1CS(=O)(=O)C1` [Example 77, (R)-6-(3-cyanopyrrolo[1,2-b]pyridazin-7-yl)-4-((1,1-dioxidothietan-3-yl)amino)-N-(2-fluoro-3-hydroxy-3-methylbutyl)nicotinamide] are 352 nM and 2 nM.
On the same counts, the results for `CC(C)Nc1cc(-c2ccc3cc(C(N)=O)cnn23)ncc1C(=O)NC1CS(=O)(=O)C1` [Example 78, 7-(5-((1,1-dioxidothietan-3-yl)carbamoyl)-4-(isopropyl-amino)pyridin-2-yl)pyrrolo[1,2-b] pyridazine-3-carboxamide] are 1620 nM and 27 nM.
Turning to `CC(C)Nc1cc(-c2ccc3cc(C(N)=O)cnn23)ncc1C(=O)NCC1CS(=O)(=O)C1` [Example 79, 7-(5-(((1,1-dioxidothietan-3-yl)methyl)carbamoyl)-4-(isopropylamino)pyridin-2-yl)pyrrolo[1,2-b] pyridazine-3-carboxamide], the 50% effective concentration (EC50) in the assay on TNFα was 1820 nM. This compound also displayed an IC50 against IRAK4 enzyme of 18 nM.
With `CC(C)(O)CCNc1cc(-c2ccc3cc(C#N)cnn23)ncc1C(=O)NC[C@@H](F)C(C)(C)O` [Example 80, (R)-6-(3-cyanopyrrolo[1,2-b]pyridazin-7-yl)-N-(2-fluoro-3-hydroxy-3-methylbutyl)-4-((3-hydroxy-3-methylbutyl)amino) nicotinamide], the EC50 with TNFα is 88 nM. In addition, at IRAK4 enzyme, the IC50 is under 1 nM.
In the same order, the values of `CC1(C)CC(Nc2cc(-c3ccc4cc(C#N)cnn34)ncc2C(=O)NC[C@@H](F)C(C)(C)O)CCO1` (stereo partly drawn) [Example 81, 6-(3-cyanopyrrolo[1,2-b]pyridazin-7-yl)-4-((2,2-dimethyltetrahydro-2H-pyran-4-yl)amino)-N-((R)-2-fluoro-3-hydroxy-3-methylbutyl) nicotinamide] are 134 nM and 1 nM.
On the same counts, the results for `CC(C)(O)[C@H](F)CNC(=O)c1cnc(-c2ccc3cc(C#N)cnn23)cc1NC1CC2(COC2)C1` [Example 82, (R)-4-(2-oxaspiro[3.3]heptan-6-ylamino)-6-(3-cyanopyrrolo[1,2-b]pyridazin-7-yl)-N-(2-fluoro-3-hydroxy-3-methylbutyl) nicotinamide] are 79 nM and under 1 nM.
In the same order, the values of `CC(C)(O)[C@H](F)CNC(=O)c1cnc(-c2ccc3cc(C#N)cnn23)cc1NC1CCN(C2COC2)CC1` [Example 83, (R)-6-(3-cyanopyrrolo[1,2-b]pyridazin-7-yl)-N-(2-fluoro-3-hydroxy-3-methylbutyl)-4-((1-(oxetan-3-yl)piperidin-4-yl)amino) nicotinamide] are 221 nM and 1 nM.
`CC(C)Nc1cc(-c2ccc3cc(C#N)cnn23)ncc1C(=O)NCCCS(C)(=O)=O` [Example 85, 6-(3-cyanopyrrolo[1,2-b]pyridazin-7-yl)-4-(isopropyl-amino)-N-(3-(methylsulfonyl)propyl) nicotinamide]: the half-maximal effective concentration (EC50) in the assay on TNFα was found to be 67 nM. The concentration for half-maximal inhibition (IC50) on IRAK4 enzyme came to 1 nM.
In the same order, the values of `CC(C)Nc1cc(-c2ccc3cc(C#N)cnn23)ncc1C(=O)NC1CCN(C2COC2)CC1` [Example 86, 6-(3-cyanopyrrolo[1,2-b]pyridazin-7-yl)-4-(isopropylamino)-N-(1-(oxetan-3-yl)piperidin-4-yl) nicotinamide] are 321 nM and 4 nM.
Take `COC(C)(C)CCNC(=O)c1cnc(-c2ccc3cc(C#N)cnn23)cc1NC(C)C` [Example 87, 6-(3-cyanopyrrolo[1,2-b]pyridazin-7-yl)-4-(isopropylamino)-N-(3-methoxy-3-methylbutyl)nicotinamide]: the concentration for a half-maximal effect (EC50) in the assay on TNFα turned out to be 160 nM. Further, the IC50 at IRAK4 enzyme is 1 nM.
In the same order, the values of `CC(C)Nc1cc(-c2ccc3cc(C#N)cnn23)ncc1C(=O)NCCNS(C)(=O)=O` [Example 88, 6-(3-cyanopyrrolo[1,2-b]pyridazin-7-yl)-4-(isopropyl-amino)-N-(2-(methylsulfonamido)ethyl) nicotinamide] are 209 nM and 3 nM.
Consider `CC(C)(O)[C@H](F)CNC(=O)c1cnc(-c2ccc3cc(C#N)cnn23)cc1Nc1cnn(CC(F)F)c1` [Example 89, (R)-6-(3-cyanopyrrolo[1,2-b]pyridazin-7-yl)-4-((1-(2,2-difluoroethyl)-1H-pyrazol-4-yl)amino)-N-(2-fluoro-3-hydroxy-3-methylbutyl) nicotinamide], for which the concentration giving a half-maximal response (EC50) with TNFα turned out to be 16 nM. The compound also came in with a half-maximal inhibitory concentration (IC50) on IRAK4 enzyme of under 1 nM.
In the same order, the values of `CC(C)Nc1cc(-c2ccc3cc(C#N)cnn23)ncc1C(=O)NC1CCC(C)(O)CC1` (stereo not drawn) [Example 90, 6-(3-cyanopyrrolo[1,2-b]pyridazin-7-yl)-N-((1s,4s)-4-hydroxy-4-methylcyclohexyl)-4-(isopropylamino) nicotinamide] are 417 nM and 3 nM.
In the same order, the values of `CC(C)Nc1cc(-c2ccc3cc(C#N)cnn23)ncc1C(=O)NCCC1(O)CCC1` [Example 91, 6-(3-cyanopyrrolo[1,2-b]pyridazin-7-yl)-N-(2-(1-hydroxycyclobutyl)ethyl)-4-(isopropylamino) nicotinamide] are 62 nM and under 1 nM.
In the same order, the values of `CC(C)Nc1cc(-c2ccc3cc(C#N)cnn23)ncc1C(=O)NCCS(C)(=O)=O` [Example 92, 6-(3-cyanopyrrolo[1,2-b]pyridazin-7-yl)-4-(isopropylamino)-N-(2-(methylsulfonyl)ethyl) nicotinamide] are 80 nM and 2 nM.
For the compound `CC(C)(O)[C@H](F)CNC(=O)c1cnc(-c2ccc3cc(C#N)cnn23)cc1N[C@@H]1C[C@@H]2CC[C@H]1O2` [Example 93, 4-(((1R,2R,4S)-7-oxabicyclo[2.2.1]heptan-2-yl)amino)-6-(3-cyano-pyrrolo[1,2-b]pyridazin-7-yl)-N-((R)-2-fluoro-3-hydroxy-3-methylbutyl)nicotinamide], the concentration giving a half-maximal response (EC50) with TNFα was determined as 78 nM. The half-maximal inhibitory concentration (IC50) on IRAK4 enzyme was found to be 1 nM.
Turning to `CC(C)(O)[C@H](F)CNC(=O)c1cnc(-c2ccc3cc(C#N)cnn23)cc1N[C@@H]1C[C@H]2CC[C@@H]1O2` [Example 94, 4-(((1S,2R,4R)-7-oxa-bicyclo[2.2.1]heptan-2-yl)amino)-6-(3-cyanopyrrolo[1,2-b]pyridazin-7-yl)-N-((R)-2-fluoro-3-hydroxy-3-methylbutyl)nicotinamide], the concentration giving a half-maximal response (EC50) in the assay with TNFα was 92 nM. This compound also yielded a 50% inhibitory concentration (IC50) on IRAK4 enzyme of 1 nM.
On to `CC(C)Nc1cc(-c2ccc3cc(C#N)cnn23)ncc1C(=O)NCCC1(O)CCOCC1` [Example 95, 6-(3-cyanopyrrolo[1,2-b]pyridazin-7-yl)-N-(2-(4-hydroxytetrahydro-2H-pyran-4-yl)ethyl)-4-(isopropylamino) nicotinamide], for which, in the assay with TNFα, the EC50 is 42 nM. At IRAK4 enzyme, this compound came in with a concentration for half-maximal inhibition (IC50) of 1 nM.
